Data as given in paper PMC11653243, “Enhancing Phototoxicity in BODIPY‐Perylene Charge Transfer Dyads by Combined Iodination and Mesylation” (Chemistry (Weinheim an Der Bergstrasse, Germany), 2024).

System: CHO cells
Assay: ROS imaging with H2DCFDA in live cells
Format: cell-based, Chinese Hamster
Details: 30 μM, 17 h; 488 nm (0.38 mW/cm^2) for 5 minutes
Procedure: To study the production of ROS in a live cell environment a commercial ROS dye, H2DCFDA was used. CHO and MCF‐7 cells were incubated with MB2PI (30 μM, 17 h), washed with PBS and co‐stained with H2DCFDA (5 μM, 30 min). To ensure no photoactivation of MB2PI, emission from H2DCFDA was collected alone prior to the excitation of the BODIPY. The complex was then irradiated continuously at 488 nm (0.38 mW/cm^2) for 5 minutes. […] Weak emission of H2DCFDA was observed prior to irradiation, consistent with the low cytotoxicity of the complex. However, after irradiation, the fluorescence intensity of the ROS dye increases dramatically indicating ROS production, consistent with the high phototoxicity of MB2PI in both test cell lines. The higher phototoxicity of MB2PI in MCF‐7 cells restricted the ROS imaging study to CHO cells as the MCF‐7 cells began to die rapidly upon irradiation. Controls completed by adding H2DCFDA in test cells without MB2PI confirmed no ROS production with or without irradiation at 488 nm.
Figure S32. DPBF (10 mM) 1O2 scavenger assay with B2P, MB2P, B2PI or MB2PI in methanol from 0-210 seconds irradiation, where absorbance at 410 nm was recorded every 30 seconds.
CHO and MCF-7 cells were treated with MB2PI (30 µM, 17 h) for the ROS imaging studies. […]
A 63x oil immersion objective was used to acquire images. The irradiance was determined using a power meter from Edmund Optics. […]

SMILES: CC1=C(c2ccc3c4cccc5cccc(c6cccc2c63)c54)C(C)=[N+]2C1=C(c1c(C)cc(C)cc1C)c1c(C)c(I)c(C)n1[B-]2(F)F [MB2PI]
- ROS production (H2DCFDA fluorescence) after irradiation: increased production of ROS
